Consider 31 compounds from patent US20260327263A1, “Anti-Bacterial Peptides” (priority 2023, published 2026).

By MIC is commonly meant the lowest concentration that inhibits growth of the organism. For orientation: MBC means the lowest tested concentration that kills the bacteria rather than only halting them. A high value points to weaker bactericidal potency.

For experiment [1], the system named is Pseudomonas aeruginosa (PA). As to the kind of experiment: Broth microdilution anti-bacterial assay (CLSI), Pseudomonas aeruginosa. It is filed as cell-based, Pseudomonas aeruginosa (ATCC 14213). Particulars: for MIC / MBC: PA; for MIC: overnight, 37° C., ≥99% inhibition; for MBC: ≥99% killing; for anti-bacterial activity (in words): PA and SA. How it is done:
(§1) To evaluate their anti-bacterial potency, broth microdilution method as per the CLSI guidelines 1 was used. […] The anti-bacterial potency of the tested agents is quantified using minimum inhibitory concentration (MIC) and minimum bactericidal concentration (MBC). […] To obtain the MBC data, 1X, 2X and 4× MIC of the peptide variants were plated to obtain the number of viable colonies compared to the original inoculum.
(§2) Pseudomonas aeruginosa (ATCC 14213, PA), and methicillin resistant Staphylococcus aureus (BAA1717-USA 300, SA) were obtained from The American Type Culture Collection (ATCC).
(§3) Examination of the potency of modified short peptides against PA and SA strains was performed by using the broth microdilution protocol from the Clinical and Laboratory Standards Institute (CLSI) guidelines (CLSI 2012) as described. Briefly, five freshly plated bacteria colonies were grown in cation adjusted MH2 broth (BD Biosciences) in a shaker incubator at 37° C., 220 RPM. Cells were grown to an optical density (OD600) of ~0.2 measured using a Microplate Spectrophotometer (Molecular Devices Spectra Max Plus). 100 μL of microbial culture containing ~5×10^5 CFU/mL of bacteria in the respective broths were introduced into each well containing 100 μL of peptides and incubated overnight at 37° C. Next, to check the bactericidal effects, 100 μL from each well was transferred and spread on sterile MH2 agar plates. The plates were incubated overnight at 37° C. and the number of colonies forming units (CFU) were calculated the following day. Readings of bacteria grown in media without any treatments were normalized to 100% as media control. For the mixed infection study, three freshly plated bacteria colonies each from PA, SA and ST plates were grown together in cation adjusted MH2 broth and proceeded as described above.
For orientation: Broth dilution looks for growth in wells or tubes with falling amounts of substance.

The subject of experiment [2] is Staphylococcus aureus (SA). As to the kind of experiment: Broth microdilution anti-bacterial assay (CLSI), Staphylococcus aureus. It is filed as cell-based. Conditions: SA; for MIC: overnight, 37° C., ≥99% inhibition; for MBC: ≥99% killing. How it is done:
as §1, §2, §3

≈ marks a conversion by molar mass, not a printed value. Where a SMILES comes first, the peptide text is derived from it. Where no end group is shown, it is not given here. [ ]: non-standard residue; d: D form. Bip = N[C@@H](Cc1ccc(-c2ccccc2)cc1)C(=O)O; 2Nal = N[C@@H](Cc1ccc2ccccc2c1)C(=O)O; Aib = CC(C)(N)C(=O)O

With KKLLKKWVKLSKKALKLAQ-NH2 [E1AM2 C-2], the MIC in experiment [1] amounted to 25 µM.

Take KKLLKKWVKLSKKALKLAKSL-NH2 [Q19K]: in experiment [2], the MIC amounted to 12.5 µM and the MBC came to 25 µM. In experiment [1], this compound yielded an MIC of 12.5 µM and an MBC of 25 µM.

Consider KKLLKKWVKLSKKLLKLAQSL-NH2 [A14L], for which, in experiment [2], the minimal inhibitory concentration (MIC) was determined as 6.25 µM and the MBC came to 6.25 µM. In experiment [1], the MIC was 12.5 µM and the MBC was determined as 12.5 µM.

KKWVKLSKKALKLAQSL-NH2 [E1AM2 N-4] had an MIC in experiment [1] of more than 25 µM.

Consider KKLLKKWKKLSKKALKLAQSL-NH2 [V8K], for which the MIC was 12.5 µM in experiment [2] and 3.125 µM in experiment [1]. Further, the MBC in experiment [2] came to 12.5 µM; in experiment [1], 3.126 µM.

In experiment [2], KKLLKKWVKLSKKKLKLAQSL-NH2 [A14K] registered an MIC of 12.5 µM and an MBC of 12.5 µM. In addition, in experiment [1], the MIC was found to be 12.5 µM and the MBC came out at 12.5 µM.

KKLLKKWVKLSKKALKLKQSL-NH2 [A18K]: in experiment [2], the MIC turned out to be 12.5 µM and the MBC was found to be 12.5 µM. In experiment [1], this compound came in with an MIC of 12.5 µM and an MBC of 25 µM.

Take KKLLKKWVKLSKKALKLA-NH2 [E1AM2 C-3]: in experiment [1], the MIC is 6.25 µM.

For the compound KLLKKWVKLSKKALKLAQSL-NH2 [E1AM2 N-1], the MIC in experiment [1] worked out at 12.5 µM.

As for LKKWVKLSKKALKLAQSL-NH2 [E1AM2 N-3], the MIC in experiment [1] was 12.5 µM.

In experiment [2], KKLLKKWLKLSKKALKLALS-NH2 [V8LQ19L C-1] registered an MIC of 3.125 µM and an MBC of 3.125 µM. In addition, in experiment [1], the “anti-bacterial activity (in words)” value is reported as “strong potency”, the MIC was 3.125 µM and the MBC came out at 3.125 µM.

In experiment [2], KKLLKKWVKLKKKALKLAQSL-NH2 [S11K] had a minimal inhibitory concentration (MIC) of 12.5 µM and an MBC of 12.5 µM. In experiment [1], this compound showed an MIC of 12.5 µM and an MBC of 12.5 µM.

For the compound KKLLKKWVKLSKKALK-NH2 [E1AM2 C-5], in experiment [1], the minimum inhibitory concentration (MIC) was more than 25 µM.

For the compound `CC(C)C[C@H](NC(=O)[C@H](CO)NC(=O)[C@H](CC(C)C)NC(=O)C(C)(C)NC(=O)[C@H](CC(C)C)NC(=O)[C@H](CCCCN)NC(=O)[C@H](CC(C)C)NC(=O)C(C)(C)NC(=O)[C@H](CCCCN)NC(=O)[C@H](CCCCN)NC(=O)[C@H](CO)NC(=O)[C@H](CC(C)C)NC(=O)[C@H](CCCCN)NC(=O)[C@H](CC(C)C)NC(=O)[C@H](Cc1c[nH]c2ccccc12)NC(=O)[C@H](CCCCN)NC(=O)[C@H](CCCCN)NC(=O)[C@H](CC(C)C)NC(=O)[C@H](CC(C)C)NC(=O)[C@H](CCCCN)NC(=O)[C@@H](N)CCCCN)C(N)=O` [V8LQ19LA1418Aib] (H-KKLLKKWLKLSKK[Aib]LKL[Aib]LSL-NH2), the MIC in experiment [2] came out at 1.56 µM (≈ 3.87 µg/mL); in experiment [1], 3.126 µM (≈ 7.75 µg/mL). Further, the MBC in experiment [2] amounted to 1.56 µM (≈ 3.87 µg/mL); in experiment [1], 3.125 µM (≈ 7.74 µg/mL).

In the case of KKLLKKWVKLSKKALKLLQSL-NH2 [A18L], the results for the MIC in experiment [2] and in experiment [1] were 3.125 µM and 6.25 µM, respectively. Moreover, the MBC in experiment [2] stood at 3.125 µM; in experiment [1] it was 6.25 µM.

In experiment [2], KKLLKKLLKLSKKALKLALSL-NH2 [W7LV8LQ19L] came in with an MIC of 1.58 µM and an MBC of 1.58 µM. In experiment [1], this compound yielded an MIC of 3.125 µM and an MBC of 3.125 µM.

For the compound KKLLKKKVKLSKKALKLAQSL-NH2 [W7K], the MIC in experiment [2] and in experiment [1] was 12.5 µM each time. For the same compound, the figures for the MBC in experiment [2] and in experiment [1] were 25 µM and 12.5 µM, respectively.

As for `CC(C)C[C@H](NC(=O)[C@H](CO)NC(=O)[C@H](CC(C)C)NC(=O)C(C)(C)NC(=O)[C@H](CC(C)C)NC(=O)[C@H](CCCCN)NC(=O)[C@H](CC(C)C)NC(=O)[C@H](C)NC(=O)[C@H](CCCCN)NC(=O)[C@H](CCCCN)NC(=O)[C@H](CO)NC(=O)[C@H](CC(C)C)NC(=O)[C@H](CCCCN)NC(=O)[C@H](CC(C)C)NC(=O)[C@H](Cc1c[nH]c2ccccc12)NC(=O)[C@H](CCCCN)NC(=O)[C@H](CCCCN)NC(=O)[C@H](CC(C)C)NC(=O)[C@H](CC(C)C)NC(=O)[C@H](CCCCN)NC(=O)[C@@H](N)CCCCN)C(N)=O` [V8LQ19LA18Aib] (H-KKLLKKWLKLSKKALKL[Aib]LSL-NH2), the MIC in experiment [2] worked out at 1.58 µM (≈ 3.89 µg/mL); in experiment [1], 3.125 µM (≈ 7.7 µg/mL). Moreover, the figures for the MBC in experiment [2] and in experiment [1] were 1.56 µM (≈ 3.84 µg/mL) and 3.125 µM (≈ 7.7 µg/mL), respectively.

In experiment [1], KKLLKKWVKLSKKALKL-NH2 [E1AM2 C-4] yielded a minimal inhibitory concentration (MIC) of more than 12.5 µM.

In the case of KKLLKKWVKLSKKAL-NH2 [E1AM2 C-6], in experiment [1], the MIC was more than 25 µM.

Take `CC(C)C[C@@H](NC(=O)[C@@H](CO)NC(=O)[C@@H](CC(C)C)NC(=O)[C@@H](C)NC(=O)[C@@H](CC(C)C)NC(=O)[C@@H](CCCCN)NC(=O)[C@@H](CC(C)C)NC(=O)[C@@H](C)NC(=O)[C@@H](CCCCN)NC(=O)[C@@H](CCCCN)NC(=O)[C@@H](CO)NC(=O)[C@@H](CC(C)C)NC(=O)[C@@H](CCCCN)NC(=O)[C@@H](CC(C)C)NC(=O)[C@@H](Cc1c[nH]c2ccccc12)NC(=O)[C@@H](CCCCN)NC(=O)[C@@H](CCCCN)NC(=O)[C@@H](CC(C)C)NC(=O)[C@@H](CC(C)C)NC(=O)[C@@H](CCCCN)NC(=O)[C@H](N)CCCCN)C(N)=O` [D-V8LQ19L] (H-[dK][dK][dL][dL][dK][dK][dW][dL][dK][dL][dS][dK][dK][dA][dL][dK][dL][dA][dL][dS][dL]-NH2): in experiment [2], the MIC was 3.125 µM (≈ 7.66 µg/mL) and the MBC amounted to 3.125 µM (≈ 7.66 µg/mL). In experiment [1], the “anti-bacterial activity (in words)” value is listed as “retains the strong anti-bacterial effects”, the MIC was 3.125 µM (≈ 7.66 µg/mL) and the MBC was 3.125 µM (≈ 7.66 µg/mL).

In the case of KKLLKKWVKLSKKALKLAQLL-NH2 [S20L], in experiment [2], the MIC stood at 6.25 µM and the MBC was 12.5 µM. In addition, in experiment [1], the MIC came to 6.25 µM and the MBC was 12.5 µM.

In the case of `CC(C)C[C@H](NC(=O)[C@H](CO)NC(=O)[C@H](CC(C)C)NC(=O)[C@H](C)NC(=O)[C@H](CC(C)C)NC(=O)[C@H](CCCCN)NC(=O)[C@H](CC(C)C)NC(=O)[C@H](C)NC(=O)[C@H](CCCCN)NC(=O)[C@H](CCCCN)NC(=O)[C@H](CO)NC(=O)[C@H](CC(C)C)NC(=O)[C@H](CCCCN)NC(=O)[C@H](CC(C)C)NC(=O)[C@H](Cc1ccc2ccccc2c1)NC(=O)[C@H](CCCCN)NC(=O)[C@H](CCCCN)NC(=O)[C@H](CC(C)C)NC(=O)[C@H](CC(C)C)NC(=O)[C@H](CCCCN)NC(=O)[C@@H](N)CCCCN)C(N)=O` [W72NalV8LQ19L] (H-KKLLKK[2Nal]LKLSKKALKLALSL-NH2), in experiment [2], the MIC is 1.56 µM (≈ 3.84 µg/mL) and the minimum bactericidal concentration (MBC) came to 1.56 µM (≈ 3.84 µg/mL). In addition, in experiment [1], the MIC is 1.56 µM (≈ 3.84 µg/mL) and the MBC was 1.66 µM (≈ 4.09 µg/mL).

LLKKWVKLSKKALKLAQSL-NH2 [E1AM2 N-2] showed an MIC in experiment [1] of 25 µM.

Take KKLLKKWVKLSKKALKLAQS-NH2 [E1AM2 C-1]: the MIC in experiment [1] was more than 25 µM.

In experiment [1], KWVKLSKKALKLAQSL-NH2 [E1AM2 N-5] registered an MIC of more than 25 µM.

On to “Ac-KKLLKKWVKLSKKALKLAQSL-NH2 [Ac-E1AM2-NH2]”, for which, in experiment [1], the MIC came out at 12.5 µM and the MBC came out at 12.5 µM.

In experiment [2], KKLLKKWVKLSKKALKLAQKL-NH2 [S20K] registered an MIC of 25 µM and an MBC of 25 µM. Also, in experiment [1], the minimum inhibitory concentration (MIC) is 25 µM and the MBC stood at 25 µM.

Turning to `CC(C)C[C@H](NC(=O)[C@H](CO)NC(=O)[C@H](CC(C)C)NC(=O)[C@H](C)NC(=O)[C@H](CC(C)C)NC(=O)[C@H](CCCCN)NC(=O)[C@H](CC(C)C)NC(=O)[C@H](C)NC(=O)[C@H](CCCCN)NC(=O)[C@H](CCCCN)NC(=O)[C@H](CO)NC(=O)[C@H](CC(C)C)NC(=O)[C@H](CCCCN)NC(=O)[C@H](CC(C)C)NC(=O)[C@H](Cc1ccc(-c2ccccc2)cc1)NC(=O)[C@H](CCCCN)NC(=O)[C@H](CCCCN)NC(=O)[C@H](CC(C)C)NC(=O)[C@H](CC(C)C)NC(=O)[C@H](CCCCN)NC(=O)[C@@H](N)CCCCN)C(N)=O` [W7BipV8LQ19L] (H-KKLLKK[Bip]LKLSKKALKLALSL-NH2), in experiment [2], the MIC is 1.58 µM (≈ 3.93 µg/mL) and the MBC is 1.56 µM (≈ 3.88 µg/mL). In experiment [1], this compound showed an MIC of 3.325 µM (≈ 8.27 µg/mL) and an MBC of 3.125 µM (≈ 7.77 µg/mL).

WVKLSKKALKLAQSL-NH2 [E1AM2 N-6] gave an MIC in experiment [1] of more than 25 µM.

In experiment [1], Ac-KKLLKKWVKLSKKALKLAQSL [Ac-E1AM2] returned an MIC of 25 µM and a minimum bactericidal concentration (MBC) of 25 µM.
